What all share (assay): NCI tumour cell line growth inhibition, 48 h
Assay [1] has as its system IGROV-1.
The test system of assay [2] is EKVX.
The subject of assay [3] is SN12C.
Assay [4] has as its system NCI-H23.
Assay [5] relates to Hs-578T.
Assay [6] concerns HOP-62.
For assay [7], the system named is HT-29.
The subject of assay [8] is UO-31.
Assay [9] deals with SW-620.
The subject of assay [10] is M14.
The test system of assay [11] is MCF7.
Assay [12] has as its system MOLT-4.
In assay [13] the test system is SF-539.
Assay [14] relates to Malme-3M.
Assay [15] relates to RXF 393.
Assay [16] concerns PC-3.
Assay [17] has as its system LOX IMVI.
In assay [18] the test system is ACHN.
The subject of assay [19] is SK-OV-3.
Assay [20] concerns CCRF-CEM.

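Following 48 hours of exposure in 96-well plates, responses at five concentrations were used to interpolate endpoints linearly. GI50 = concentration required for 50% inhibition of growth.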 The source made the active and inactive calls. Rule as the data show it: active = GI50 up to about 1.1 µM and inactive = higher.

As for `CC1=C(C)C(=O)OC(C(C)(O)C2(O)CCC3(O)C4CC(Cl)C5(O)C(O)C=CC(=O)C5(C)C4CCC32C)C1` (stereo not given), the GI50 in assay [1] is 49.3 µM (inactive); in [2] it was 53.7 µM (inactive); in assay [3], 61 µM (inactive); in assay [4], 64.7 µM (inactive); in assay [5] it was 66.4 µM (inactive); in assay [6], > 100 µM (inactive). Besides, the GI50 in assay [7] was 15.9 µM (inactive); in assay [8], 15.6 µM (inactive); in assay [9] it was 21.3 µM (inactive); in [10], 40.3 µM (inactive); in assay [11], 8.85 µM (inactive); in assay [12] it was 10.1 µM (inactive). Moreover, the GI50 in assay [13] was 28.2 µM (inactive); in [14] it was > 100 µM (inactive); in assay [15], 18.5 µM (inactive); in assay [16], 48.1 µM (inactive); in [17] it was 14.9 µM (inactive); in assay [18], 42.1 µM (inactive). Moreover, the GI50 in assay [19] was 41.6 µM (inactive); in assay [20], 14.1 µM (inactive).
In the case of `COc1cc(/C=C2\CC3C4CC=C5C[C@@H](O)CC[C@]5(C)C4CC[C@]3(C)\C2=N\O)cc(OC)c1OC` (stereo not given in full), the GI50 in assay [1] was 13 µM (inactive); in assay [2], 6.04 µM (inactive); in [3] it was 7.13 µM (inactive); in assay [4] it was 7.16 µM (inactive); in assay [5], 4.42 µM (inactive); in assay [6] it was 19.6 µM (inactive). In addition, the GI50 in assay [7] was 5.51 µM (inactive); in assay [8] it was 2.28 µM (inactive); in assay [9] it was 16.7 µM (inactive); in assay [10] it was 10.5 µM (inactive); in assay [11] it was 3.21 µM (inactive); in assay [12], 29.2 µM (inactive). Further, the GI50 in assay [13] is 6.25 µM (inactive); in assay [14], 9.35 µM (inactive); in assay [15], 3.61 µM (inactive); in [16], 4.28 µM (inactive); in assay [17], 5.48 µM (inactive); in assay [18] it was 3.2 µM (inactive). Also, the GI50 in [19] was 23.7 µM (inactive); in [20], 6.44 µM (inactive).
In the case of `CN(CC(=O)O)c1ncc2c(n1)-c1ccccc1CC2`, the GI50 in assay [1], in assay [2], in [3], in [4], in [5] and in [6] was > 100 µM (inactive) throughout. Further, the GI50 in [7], in assay [8], in assay [9], in assay [10], in [11] and in [12] was > 100 µM (inactive) throughout. For the same compound, the GI50 in assay [13], in assay [14], in assay [15], in assay [16], in [17] and in assay [18] was > 100 µM (inactive) throughout. Moreover, the GI50 in assay [19] and in assay [20] was > 100 µM (inactive) throughout.
For the compound `COc1cccc2cc(C(=O)Nc3ccccn3)c(=N)oc12`, the GI50 in assay [1] was > 100 µM (inactive); in assay [2], > 100 µM (inactive); in [3], > 100 µM (inactive); in [4] it was 52.5 µM (inactive); in assay [5], 55.7 µM (inactive); in assay [6], 82.8 µM (inactive). The GI50 is > 100 µM (inactive) in [7]; > 100 µM (inactive) in [8]; > 100 µM (inactive) in [9]; 72.8 µM (inactive) in assay [10]; 19.1 µM (inactive) in [11]; 0.501 µM (active) in assay [12]. Moreover, the GI50 in assay [13] is > 100 µM (inactive); in assay [14] it was 50.9 µM (inactive); in assay [15], 49 µM (inactive); in [16], > 100 µM (inactive); in assay [17], > 100 µM (inactive); in assay [18], 60.3 µM (inactive). The GI50 in assay [19] was 85.3 µM (inactive); in [20], 22.8 µM (inactive).
On to `Cc1ccc(/N=N\c2c(O)ccc3cc(S(=O)(=O)O)ccc23)cc1`, for which the GI50 in assay [1] was > 80.2 µM (inactive); in assay [2] it was > 100 µM (inactive); in [3], > 100 µM (inactive); in [4] it was > 100 µM (inactive); in assay [5] it was > 100 µM (inactive); in assay [6] it was > 100 µM (inactive). In addition, the GI50 in assay [7], in assay [8], in [9], in assay [10], in assay [11] and in assay [12] was > 100 µM (inactive) each time. Further, the GI50 in [13], in assay [14], in [15], in assay [16], in assay [17] and in assay [18] was > 100 µM (inactive) throughout. In addition, the GI50 in assay [19] and in assay [20] was > 100 µM (inactive) each time.
Regarding `CSCCCNC(=O)c1csc(-c2csc(CCNC(=O)CNC(=O)CNC(=O)OC(C)(C)C)n2)n1`, the GI50 in [1], in assay [2], in [3], in assay [4], in assay [5] and in assay [6] was > 100 µM (inactive) each time. Further, the GI50 in assay [7], in assay [8], in assay [9], in [10], in assay [11] and in assay [12] was > 100 µM (inactive) in each case. Moreover, the GI50 in assay [13], in assay [14], in assay [15], in assay [16], in assay [17] and in assay [18] was > 100 µM (inactive) throughout. Also, the GI50 in [19] and in assay [20] was > 100 µM (inactive) in each case.
Take `O=c1c2cc(Cl)ccc2n2nnc3ccc(NCCNCCO)c1c32`: the GI50 in assay [1] was 2.11 µM (inactive); in assay [2] it was 1.93 µM (inactive); in assay [3], 0.731 µM (active); in assay [4], 1.36 µM (inactive); in [5], 1.78 µM (inactive); in assay [6], 1.41 µM (inactive). Further, the GI50 in [7] is 0.575 µM (active); in assay [8] it was 1.17 µM (inactive); in assay [9] it was 0.466 µM (active); in assay [10] it was 1.38 µM (inactive); in assay [11], 2.76 µM (inactive); in assay [12], 0.394 µM (active). Also, the GI50 is 1.8 µM (inactive) in [13]; 2.09 µM (inactive) in assay [14]; 1.79 µM (inactive) in [15]; 1.16 µM (inactive) in assay [16]; 0.583 µM (active) in assay [17]; 0.682 µM (active) in assay [18]. Also, the GI50 in [19] is 2.67 µM (inactive); in assay [20] it was 0.56 µM (active).
